From patent US8258158B2 (Hoffmann-La Roche Inc., priority 2009, dated 2012)

What follows are compounds tested against T1, human HSL (Homo sapiens, UniProt Q05469) (assay: Human hormone-sensitive lipase (HSL) enzyme inhibition assay (colorimetric, DMPT substrate)). Settings: human full length HSL-His6; 2,3-dimercapto-1-propanol tributyrate substrate; 37° C., 20 minutes; read-out: HSL hum IC50.
T1 construct: overlapping PCR to generate a full length human HSL ORF with a 3′-His6 tag; His6 (C); made in house; host or cells: High 5 insect cells (baculovirus, pFast-BAC)
T1 sequence (Q05469 1-1076): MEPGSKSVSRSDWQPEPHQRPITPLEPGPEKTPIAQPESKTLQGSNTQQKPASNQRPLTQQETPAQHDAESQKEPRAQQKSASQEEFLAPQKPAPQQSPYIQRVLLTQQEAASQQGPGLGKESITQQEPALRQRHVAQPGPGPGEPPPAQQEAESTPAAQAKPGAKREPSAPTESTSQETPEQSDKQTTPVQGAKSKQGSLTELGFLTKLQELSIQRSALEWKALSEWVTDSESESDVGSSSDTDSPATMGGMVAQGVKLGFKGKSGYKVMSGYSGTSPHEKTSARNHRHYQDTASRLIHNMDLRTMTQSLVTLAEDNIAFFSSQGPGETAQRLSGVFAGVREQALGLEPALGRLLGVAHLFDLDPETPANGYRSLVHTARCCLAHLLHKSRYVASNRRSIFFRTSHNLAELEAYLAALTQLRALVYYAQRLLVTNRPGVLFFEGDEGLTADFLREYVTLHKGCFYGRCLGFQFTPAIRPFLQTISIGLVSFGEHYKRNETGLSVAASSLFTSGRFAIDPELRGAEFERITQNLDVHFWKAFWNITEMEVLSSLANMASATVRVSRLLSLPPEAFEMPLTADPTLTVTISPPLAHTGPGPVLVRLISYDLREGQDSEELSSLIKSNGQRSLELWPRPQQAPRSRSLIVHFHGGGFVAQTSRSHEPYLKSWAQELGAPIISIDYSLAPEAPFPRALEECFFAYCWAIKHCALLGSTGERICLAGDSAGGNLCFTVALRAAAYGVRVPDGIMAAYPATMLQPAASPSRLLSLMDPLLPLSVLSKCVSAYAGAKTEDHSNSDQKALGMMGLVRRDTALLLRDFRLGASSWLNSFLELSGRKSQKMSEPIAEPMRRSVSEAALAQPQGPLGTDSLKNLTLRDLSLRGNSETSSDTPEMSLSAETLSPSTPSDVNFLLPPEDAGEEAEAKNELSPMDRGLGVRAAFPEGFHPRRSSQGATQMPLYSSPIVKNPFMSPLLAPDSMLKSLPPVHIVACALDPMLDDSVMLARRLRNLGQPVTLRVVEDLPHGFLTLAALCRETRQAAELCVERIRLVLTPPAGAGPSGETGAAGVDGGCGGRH
Assay type: biochemical
Outline: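 Full-length human HSL with C-terminal His6, expressed in baculovirus/High 5 cells and Ni-NTA purified, was added from a 15 µg/ml solution to 1.5 mM DMPT in 100 mM MOPS pH 7.2, 0.2 mg/ml fatty acid-free BSA. After 20 min at 37 °C, DTNB with SDS/Triton X-100 was added, 15 min RT, and A405 read.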

SMILES | IC50
CC1(C(=O)Nc2ccc(OC(F)(F)F)cc2)CCN(S(=O)(=O)c2ccccc2Cl)CC1 [Example 58, 1-(2-Chloro-benzenesulfonyl)-4-methyl-piperidine-4-carboxylic acid (4-trifluoromethoxy-phenyl)-amide] | 540 nM
O=C(NCC1(c2ccc(Cl)cc2)CC1)C1CCN(S(=O)(=O)c2ccccc2Cl)CC1 [Example 61, 1-(2-Chloro-benzenesulfonyl)-piperidine-4-carboxylic acid [1-(4-chloro-phenyl)-cyclopropylmethyl]-amide] | 640 nM
O=C(NCC1(c2ccc(Cl)cc2)CC1)C1CCN(S(=O)(=O)c2ccccc2)CC1 [Example 62, 1-Benzenesulfonyl-piperidine-4-carboxylic acid [1-(4-chloro-phenyl)-cyclopropylmethyl]-amide] | 530 nM
Cn1cc(S(=O)(=O)N2CCC(F)(C(=O)Nc3ccc(OC(F)(F)F)cc3)CC2)c(C(F)(F)F)n1 [Example 63, 4-Fluoro-1-(1-methyl-3-trifluoromethyl-1H-pyrazole-4-sulfonyl)-piperidine-4-carboxylic acid (4-trifluoromethoxy-phenyl)-amide] | 1090 nM
Cc1ccc(S(=O)(=O)N2CCC(C(=O)NCC3(c4ccc(Cl)cc4)CC3)CC2)cc1 [Example 64, 1-(Toluene-4-sulfonyl)-piperidine-4-carboxylic acid [1-(4-chloro-phenyl)-cyclopropylmethyl]-amide] | 1490 nM

These reach a lower IC50. Values come first.

IC50 | SMILES
290 nM | COCC[C@@H](Oc1ccc(NC(=O)C2CCN(S(=O)(=O)c3ccc(C)cc3)CC2)cc1)C(F)(F)F [Example 59, 1-(Toluene-4-sulfonyl)-piperidine-4-carboxylic acid [4-((R)-3-methoxy-1-trifluoromethyl-propoxy)-phenyl]-amide]
260 nM | CC(C)(C)CCC(=O)N1CCC(C(=O)Nc2ccc(OC(F)(F)F)cc2)CC1 [Example 56, 1-(4,4-Dimethyl-pentanoyl)-piperidine-4-carboxylic acid (4-trifluoromethoxy-phenyl)-amide]
250 nM | CC1(C(=O)Nc2ccc(OC(F)(F)F)cc2)CCN(S(=O)(=O)c2ccccc2)CC1 [Example 57, 1-Benzenesulfonyl-4-methyl-piperidine-4-carboxylic acid (4-trifluoromethoxy-phenyl)-amide]
70 nM | Cc1ccc(S(=O)(=O)N2CCC(C(=O)Nc3ccc(O[C@H](CCO)C(F)(F)F)cc3)CC2)cc1 [Example 60, 1-(Toluene-4-sulfonyl)-piperidine-4-carboxylic acid [4-((R)-3-hydroxy-1-trifluoromethyl-propoxy)-phenyl]-amide]
